The record followed here is PubChem BioAssay (NCI).

The structures appear in SMILES notation.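 A five-concentration, 48-hour dose response in 96-well plates underlies each endpoint, interpolated linearly between surrounding concentrations. The concentration for full growth arrest is given as TGI.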

Among the test systems are 786-0 renal; A549 NSCLC; COLO 205 colon; DU-145 prostate; HOP-62 NSCLC; HS 578T breast; K-562 leukemia; NCI-H226 lung; OVCAR-5 ovarian; OVCAR-8 ovarian; RXF 393 renal; SF-268 CNS; SF-539 CNS; SK-OV-3 ovarian; SN12C renal; SNB-19 CNS; SNB-75 CNS; UO-31 renal.
What all share (experiment): inhibition of tumour cell growth, NCI panel, 48 h

Take `COC(=O)/C(=C\Nc1cccc(C)n1)S(=O)(=O)c1ccc(C)cc1`: the TGI in the test with 786-0 renal was greater than 100 µM; with A549 NSCLC, greater than 100 µM; with COLO 205 colon, 49.9 µM; in the test on DU-145 prostate, greater than 100 µM; with HOP-62 NSCLC, greater than 100 µM; in the test on HS 578T breast it was greater than 100 µM. The TGI is 75.5 µM in the test on K-562 leukemia; greater than 100 µM in the test with NCI-H226 lung; greater than 100 µM in the test with OVCAR-5 ovarian; greater than 100 µM with OVCAR-8 ovarian; greater than 100 µM in the test on RXF 393 renal; greater than 100 µM in the test with SF-268 CNS. For the same compound, the TGI in the test with SF-539 CNS, with SK-OV-3 ovarian, in the test with SN12C renal, in the test on SNB-19 CNS, in the test with SNB-75 CNS and in the test with UO-31 renal was greater than 100 µM in each case.
With `N/C(=N\S(=O)(=O)c1ccc(S(=O)(=O)c2ccccc2)s1)Nc1ccc(Cl)cc1`, the TGI is 41.5 µM with 786-0 renal; greater than 100 µM in the test on A549 NSCLC; 39.4 µM with COLO 205 colon; 55.3 µM with DU-145 prostate; 39.3 µM in the test on HOP-62 NSCLC; 81.5 µM with HS 578T breast. For the same compound, the TGI in the test with K-562 leukemia was 88.2 µM; in the test on NCI-H226 lung, 88.6 µM; with OVCAR-5 ovarian it was 97.6 µM; in the test with OVCAR-8 ovarian it was 45.1 µM; with RXF 393 renal, greater than 100 µM; in the test on SF-268 CNS it was 47.7 µM. In addition, the TGI in the test with SF-539 CNS was 84.3 µM; in the test with SK-OV-3 ovarian it was greater than 100 µM; with SN12C renal it was 36.3 µM; in the test with SNB-19 CNS it was greater than 100 µM; in the test with SNB-75 CNS it was greater than 100 µM; in the test with UO-31 renal, 40 µM.
For the compound `CCOC(=O)c1ccc(Nc2c3c(nc4ccccc24)CCCC3)cc1`, the TGI is greater than 100 µM with 786-0 renal; greater than 100 µM with A549 NSCLC; greater than 100 µM in the test on COLO 205 colon; greater than 100 µM in the test with DU-145 prostate; greater than 83.9 µM in the test with HOP-62 NSCLC; greater than 100 µM in the test with HS 578T breast. Besides, the TGI with K-562 leukemia, in the test on NCI-H226 lung, in the test with OVCAR-5 ovarian, in the test on OVCAR-8 ovarian, with RXF 393 renal and in the test with SF-268 CNS was greater than 100 µM throughout. Also, the TGI with SF-539 CNS was greater than 100 µM; in the test on SK-OV-3 ovarian, greater than 100 µM; in the test with SN12C renal it was greater than 100 µM; in the test with SNB-19 CNS, greater than 100 µM; with SNB-75 CNS, greater than 54.8 µM; with UO-31 renal, greater than 100 µM.
In the case of `COC(=O)CCC(=O)NC1=C(Nc2ccc(OC)cc2)C(=O)c2ccccc2C1=O`, the TGI with 786-0 renal came out at 76.2 µM; in the test with A549 NSCLC, 29.7 µM; with COLO 205 colon it was 28 µM; with DU-145 prostate, 26.9 µM; in the test with HOP-62 NSCLC it was 33.2 µM; with HS 578T breast it was 72.6 µM. The TGI in the test on K-562 leukemia is greater than 86.8 µM; with NCI-H226 lung it was 35.3 µM; in the test on OVCAR-5 ovarian, 31 µM; with OVCAR-8 ovarian, 75.6 µM; in the test with RXF 393 renal it was 67 µM; with SF-268 CNS, 98.2 µM. The TGI stood at 27.9 µM with SF-539 CNS; 88.1 µM in the test on SK-OV-3 ovarian; 27.3 µM with SN12C renal; 37.7 µM in the test with SNB-19 CNS; 21.2 µM in the test with SNB-75 CNS; 32.1 µM with UO-31 renal.
As for `CCCCC(=O)NS(=NC(=O)c1ccccc1)C(Cl)(Cl)Cl` (centres undefined), the TGI in the test with 786-0 renal, in the test on A549 NSCLC, in the test on COLO 205 colon, with DU-145 prostate, with HOP-62 NSCLC and in the test on HS 578T breast was greater than 100 µM in each case. In addition, the TGI in the test on K-562 leukemia, in the test with NCI-H226 lung, in the test on OVCAR-5 ovarian, in the test on OVCAR-8 ovarian, in the test with RXF 393 renal and in the test with SF-268 CNS was greater than 100 µM in each case. The TGI in the test with SF-539 CNS, in the test with SK-OV-3 ovarian, in the test with SN12C renal, in the test on SNB-19 CNS, in the test on SNB-75 CNS and with UO-31 renal was greater than 100 µM each time.
Regarding `C[C@H](CCC(=O)NCCS(=O)(=O)O)[C@H]1CC[C@H]2[C@@H]3CC[C@@H]4C[C@H](O)CC[C@]4(C)[C@H]3CC[C@]12C`, the TGI with 786-0 renal, with A549 NSCLC, in the test on COLO 205 colon, in the test with DU-145 prostate, in the test with HOP-62 NSCLC and in the test with HS 578T breast was greater than 100 µM in each case. Also, the TGI in the test on K-562 leukemia, in the test with NCI-H226 lung, in the test on OVCAR-5 ovarian, in the test with OVCAR-8 ovarian, with RXF 393 renal and with SF-268 CNS was greater than 100 µM in each case. Further, the TGI in the test on SF-539 CNS, in the test on SK-OV-3 ovarian, in the test with SN12C renal, in the test with SNB-19 CNS, with SNB-75 CNS and in the test with UO-31 renal was greater than 100 µM in each case.
`Nc1nc(Cl)c(N)c(NCC2(CO)CC(OCc3ccccc3)C2)n1` (centres undefined): the TGI in the test on 786-0 renal, in the test with A549 NSCLC, with COLO 205 colon, with DU-145 prostate, in the test on HOP-62 NSCLC and in the test on HS 578T breast was greater than 100 µM each time. Further, the TGI in the test on K-562 leukemia, in the test on NCI-H226 lung, with OVCAR-5 ovarian, in the test on OVCAR-8 ovarian, in the test with RXF 393 renal and with SF-268 CNS was greater than 100 µM in each case. Moreover, the TGI with SF-539 CNS, in the test with SK-OV-3 ovarian, in the test on SN12C renal, in the test on SNB-19 CNS, in the test on SNB-75 CNS and with UO-31 renal was greater than 100 µM each time.
Turning to `C[C@]12CC[C@H]3[C@@H](CC=C4C[C@@H](N5CCCC5)CC[C@@]43C)[C@@H]1C[C@H](N1CCOCC1)[C@@H]2O`, the TGI with 786-0 renal, with A549 NSCLC, in the test with COLO 205 colon, with DU-145 prostate, in the test on HOP-62 NSCLC and with HS 578T breast was greater than 100 µM throughout. Besides, the TGI in the test with K-562 leukemia is 74.3 µM; in the test with NCI-H226 lung, greater than 100 µM; in the test with OVCAR-5 ovarian it was greater than 100 µM; in the test with OVCAR-8 ovarian, greater than 100 µM; in the test on RXF 393 renal, greater than 100 µM; with SF-268 CNS it was greater than 100 µM. For the same compound, the TGI in the test with SF-539 CNS, in the test on SK-OV-3 ovarian, in the test with SN12C renal, with SNB-19 CNS, in the test on SNB-75 CNS and with UO-31 renal was greater than 100 µM throughout.
